Assays:
Test in all cases: combination Emax (second highest fraction inhibited in the dose matrix, 72 h); higher = more inhibition; extreme values may be limits of the assay
NCI-H2591 (Mesothelioma) = system: NCI-H2591 (Mesothelioma)
Method in brief: (§1)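 Cell lines grown in DMEM/F12 or RPMI with 10% FBS were plated in 1536-well plates and held 24 hours at 37°C, 5% CO2 before 72 hours of exposure to two-drug dose matrices, with DMSO typically at 0.2%. CellTiter-Glo 2.0 luminescence gave viability, which was converted to inhibition. Vehicle wells were set to 0 and blank wells to 1. Combination Emax is the second-highest inhibition in the matrix, and Bliss excess is the observed combination effect minus the expected EA + EB − EA·EB, where EA and EB are the single-agent effects.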

[1] = system: VCaP (Prostate Carcinoma)
Method in brief: as §1

[2] = system: CCK-81 (Colorectal Carcinoma)
Method in brief: as §1

[3] = system: SK-MG-1 (Low Grade Glioma)
Method in brief: as §1

[4] = system: ECC10 (Gastric Carcinoma)
Method in brief: as §1

[5] = system: PANC-10-05 (Pancreatic Carcinoma)
Method in brief: as §1

[6] = system: TT (Thyroid Gland Carcinoma)
Method in brief: as §1

[7] = system: NCI-H1666 (Lung Adenocarcinoma)
Method in brief: as §1

[8] = system: MDST8 (Colorectal Carcinoma)
Method in brief: as §1

[9] = system: SK-MES-1 (Squamous Cell Lung Carcinoma)
Method in brief: as §1

U-2-OS (Osteosarcoma) = system: U-2-OS (Osteosarcoma)
Method in brief: as §1

[10] = system: CAL-29 (Bladder Carcinoma)
Method in brief: as §1

IGR-37 (Melanoma) = system: IGR-37 (Melanoma)
Method in brief: as §1

[11] = system: A3-KAW (B-Cell Non-Hodgkin's Lymphoma)
Method in brief: as §1

FU97 (Gastric Carcinoma) = system: FU97 (Gastric Carcinoma)
Method in brief: as §1

[12] = system: HCC1954 (Breast Carcinoma)
Method in brief: as §1

[13] = system: A549 (Lung Adenocarcinoma)
Method in brief: as §1

[14] = system: OS-RC-2 (Kidney Carcinoma)
Method in brief: as §1

[15] = system: ONS-76 (Other Solid Carcinomas)
Method in brief: as §1

Hs-445 (Non-Cancerous) = system: Hs-445 (Non-Cancerous)
Method in brief: as §1

SMILES | combination Emax (NCI-H2591 (Mesothelioma)) | combination Emax [1] | combination Emax [2] | combination Emax [3] | combination Emax [4] | combination Emax [5] | combination Emax [6] | combination Emax [7] | combination Emax [8] | combination Emax [9] | combination Emax (U-2-OS (Osteosarcoma)) | combination Emax [10] | combination Emax (IGR-37 (Melanoma)) | combination Emax [11] | combination Emax (FU97 (Gastric Carcinoma)) | combination Emax [12] | combination Emax [13] | combination Emax [14] | combination Emax [15] | combination Emax (Hs-445 (Non-Cancerous))
CC(=O)c1c(C)c2cnc(Nc3ccc(N4CCNCC4)cn3)nc2n(C2CCCC2)c1=O [Palbociclib] + CC1(C)CCC(CN2CCN(c3ccc(C(=O)NS(=O)(=O)c4ccc(NCC5CCOCC5)c([N+](=O)[O-])c4)c(Oc4cnc5[nH]ccc5c4)c3)CC2)=C(c2ccc(Cl)cc2)C1 [Venetoclax] (first compound max 10 µM, 7x7, partner max 1 µM) | 0.237 | 0.164 | 0.106 | 0.282 | 0.915 | 0.275 | 0.295 | 0.177 | 0.238 | 0.208 | 0.142 | 0.0999 | 0.215 | 0.826 | 0.161 | 0 | 0.64 | 0.155 | 0.364 | 0.746
CC1(C)CCC(CN2CCN(c3ccc(C(=O)NS(=O)(=O)c4ccc(NCC5CCOCC5)c([N+](=O)[O-])c4)c(Oc4cnc5[nH]ccc5c4)c3)CC2)=C(c2ccc(Cl)cc2)C1 [Venetoclax] + COc1cc(Nc2ncc3c(n2)-c2ccc(Cl)cc2C(c2c(F)cccc2OC)=NC3)ccc1C(=O)O [Alisertib] (first compound max 1 µM, 7x7, partner max 10 µM) | 0.298 | 0.305 | 0.318 | 0.365 | 0.963 | 0.302 | 0.573 | 0.501 | 0.329 | 0.4 | 0.4 | 0.364 | 0.486 | 0.759 | 0.484 | 0.36 | 0.721 | 0.319 | 0.553 | 0.857
CN(CCO)CC[C@H](CSc1ccccc1)Nc1ccc(S(=O)(=O)NC(=O)c2ccc(N3CCC([C@@H](O)c4ccccc4-c4ccc(Cl)cc4)CC3)cc2)cc1S(=O)(=O)C(F)(F)F [AZD4320] + C1CN(CCC1(C(=O)N[C@@H](CCO)C2=CC=C(C=C2)Cl)N)C3=NC=NC4=C3C=CN4 [Capivasertib] (first compound max 1 µM, 7x7, partner max 3 µM) | 0.101 | 0.404 | 0.135 | 0.413 | 1 | 0.265 | 0.408 | 0.201 | 0.914 | 0.104 | 0.225 | 0.221 | 0.186 | 0.367 | 0.418 | 0.902 | 0.354 | 0.337 | 0.221 | 0.805
Cc1c2c(nn1C)CSCc1cc(n(C)n1)CSc1cc(c3ccccc3c1)OCCCc1c(C(=O)O)n(C)c3c-2c(Cl)ccc13 [AZD5991] + C=CCn1c(=O)c2cnc(Nc3ccc(N4CCN(C)CC4)cc3)nc2n1-c1cccc(C(C)(C)O)n1 [AZD1775] (first compound max 1 µM, partner max 1 µM) | 0.266 | 0.916 | 0.928 | 0.783 | 0.858 | 0.573 | 0.428 | 0.338 | 0.597 | 0.593 | 0.809 | 0.919 | 0.768 | 1 | 0.436 | 0.978 | 0.425 | 0.303 | 0.584 | 1
COc1nnc2ccc(N3CCC(c4ccc(OCCN5CCN(C)C(=O)[C@H]5C)cc4)CC3)nn12 [AZD5153] + Cc1c2c(nn1C)CSCc1cc(n(C)n1)CSc1cc(c3ccccc3c1)OCCCc1c(C(=O)O)n(C)c3c-2c(Cl)ccc13 [AZD5991] (first compound max 1 µM, 7x7, partner max 1 µM) | 0.368 | 0.988 | 0.916 | 0.425 | 1 | 0.515 | 0.623 | 0.423 | 0.355 | 0.558 | 0.418 | 0.355 | 0.949 | 1 | 0.95 | 0.956 | 0.821 | 0.372 | 0.497 | 0.618
COc1nnc2ccc(N3CCC(c4ccc(OCCN5CCN(C)C(=O)[C@H]5C)cc4)CC3)nn12 [AZD5153] + CC1(C)CCC(CN2CCN(c3ccc(C(=O)NS(=O)(=O)c4ccc(NCC5CCOCC5)c([N+](=O)[O-])c4)c(Oc4cnc5[nH]ccc5c4)c3)CC2)=C(c2ccc(Cl)cc2)C1 [Venetoclax] (first compound max 1 µM, 7x7, partner max 1 µM) | 0.331 | 0.777 | 0.848 | 0.425 | 0.985 | 0.474 | 0.596 | 0.439 | 0.324 | 0.472 | 0.321 | 0.327 | 0.65 | 1 | 0.754 | 0.152 | 0.707 | 0.273 | 0.538 | 0.724
CN(CCO)CC[C@H](CSc1ccccc1)Nc1ccc(S(=O)(=O)NC(=O)c2ccc(N3CCC([C@@H](O)c4ccccc4-c4ccc(Cl)cc4)CC3)cc2)cc1S(=O)(=O)C(F)(F)F [AZD4320] + C=CCn1c(=O)c2cnc(Nc3ccc(N4CCN(C)CC4)cc3)nc2n1-c1cccc(C(C)(C)O)n1 [AZD1775] (first compound max 1 µM, partner max 1 µM) | 0.159 | 0.717 | 0.775 | 0.91 | 1 | 0.481 | 0.484 | 0.302 | 0.992 | 0.797 | 0.782 | 0.942 | 0.762 | 0.892 | 0.454 | 0.718 | 0.384 | 0.337 | 0.726 | 1
NC1(C(=O)N[C@@H](CCO)c2ccc(Cl)cc2)CCN(c2ncnc3[nH]ccc23)CC1 [Capivasertib] + COc1nnc2ccc(N3CCC(c4ccc(OCCN5CCN(C)C(=O)[C@H]5C)cc4)CC3)nn12 [AZD5153] (first compound max 10 µM, 7x7, partner max 1 µM) | 0.334 | 0.96 | 0.695 | 0.721 | 0.981 | 0.669 | 0.695 | 0.385 | 0.733 | 0.583 | 0.354 | 0.723 | 0.662 | 1 | 0.821 | 0.922 | 0.823 | 0.433 | 0.627 | 0.722
COc1nnc2ccc(N3CCC(c4ccc(OCCN5CCN(C)C(=O)[C@H]5C)cc4)CC3)nn12 [AZD5153] + Cn1cnc2c(F)c(Nc3ccc(Br)cc3Cl)c(C(=O)NOCCO)cc21 [Selumetinib] (first compound max 1 µM, 7x7, partner max 10 µM) | 0.629 | 0.797 | 1 | 0.467 | 0.955 | 0.633 | 0.524 | 0.558 | 0.826 | 0.717 | 0.628 | 0.595 | 1 | 1 | 0.701 | 0.263 | 0.917 | 0.343 | 0.697 | 0.555
Cc1c2c(nn1C)CSCc1cc(n(C)n1)CSc1cc(c3ccccc3c1)OCCCc1c(C(=O)O)n(C)c3c-2c(Cl)ccc13 [AZD5991] + CCN(CCO)CCCOc1ccc2c(Nc3cc(CC(=O)Nc4cccc(F)c4)[nH]n3)ncnc2c1 [AZD2811] (first compound max 1 µM, 7x7, partner max 1 µM) | 0.265 | 0.94 | 0.875 | 0.465 | 0.957 | 0.303 | 0.574 | 0.334 | 0.362 | 0.408 | 0.307 | 0.739 | 0.24 | 1 | 0.284 | 0.98 | 0.41 | 0.21 | 0.386 | 0.968
Cn1cnc2c(F)c(Nc3ccc(Br)cc3Cl)c(C(=O)NOCCO)cc21 [Selumetinib] + CCN(CCO)CCCOc1ccc2c(Nc3cc(CC(=O)Nc4cccc(F)c4)[nH]n3)ncnc2c1 [AZD2811] (first compound max 10 µM, 7x7, partner max 1 µM) | 0.29 | 0.211 | 0.372 | 0.288 | 0.841 | 0.464 | 0.453 | 0.506 | 0.63 | 0.511 | 0.661 | 0.389 | 0.774 | 0.597 | 0.305 | 0.29 | 0.807 | 0.225 | 0.728 | 0.414
CC(=O)c1c(C)c2cnc(Nc3ccc(N4CCNCC4)cn3)nc2n(C2CCCC2)c1=O [Palbociclib] + Cc1c2c(nn1C)CSCc1cc(n(C)n1)CSc1cc(c3ccccc3c1)OCCCc1c(C(=O)O)n(C)c3c-2c(Cl)ccc13 [AZD5991] (first compound max 10 µM, 7x7, partner max 1 µM) | 0.279 | 0.855 | 0.941 | 0.3 | 0.911 | 0.329 | 0.419 | 0.236 | 0.223 | 0.266 | 0.274 | 0.175 | 0.325 | 1 | 0.222 | 0.712 | 0.64 | 0.232 | 0.357 | 0.337

— the supplement of paper PMC11061612
